Data from patent US20130116185A1, “PHOSPHATIDYLINOSITOL 3-KINASES ACTIVITY REGULATOR INCLUDING THE FIFTH ZINC FINGER DOMAIN OF FOG2” (SNU R&DB FOUNDATION, priority 2010, published 2013).
Entries after “also recorded” stand apart in the source; their conditions may differ.

What was measured:
PI3K [1] = target: T1, PI3K (Homo sapiens, UniProt P27986); test: PI3K activity in MDA MB 231 cells incubated with zinc finger domain peptides; type: cell-based; design: The cell lysates were immunoprecipitated with p85α (sc-1637, Santa Cruz) and Protein G-Sepharose beads; endogenous in cells; conditions: synthesized peptides, FIG. 5
T1 sequence (P27986 whole entry, the tested form may be a part): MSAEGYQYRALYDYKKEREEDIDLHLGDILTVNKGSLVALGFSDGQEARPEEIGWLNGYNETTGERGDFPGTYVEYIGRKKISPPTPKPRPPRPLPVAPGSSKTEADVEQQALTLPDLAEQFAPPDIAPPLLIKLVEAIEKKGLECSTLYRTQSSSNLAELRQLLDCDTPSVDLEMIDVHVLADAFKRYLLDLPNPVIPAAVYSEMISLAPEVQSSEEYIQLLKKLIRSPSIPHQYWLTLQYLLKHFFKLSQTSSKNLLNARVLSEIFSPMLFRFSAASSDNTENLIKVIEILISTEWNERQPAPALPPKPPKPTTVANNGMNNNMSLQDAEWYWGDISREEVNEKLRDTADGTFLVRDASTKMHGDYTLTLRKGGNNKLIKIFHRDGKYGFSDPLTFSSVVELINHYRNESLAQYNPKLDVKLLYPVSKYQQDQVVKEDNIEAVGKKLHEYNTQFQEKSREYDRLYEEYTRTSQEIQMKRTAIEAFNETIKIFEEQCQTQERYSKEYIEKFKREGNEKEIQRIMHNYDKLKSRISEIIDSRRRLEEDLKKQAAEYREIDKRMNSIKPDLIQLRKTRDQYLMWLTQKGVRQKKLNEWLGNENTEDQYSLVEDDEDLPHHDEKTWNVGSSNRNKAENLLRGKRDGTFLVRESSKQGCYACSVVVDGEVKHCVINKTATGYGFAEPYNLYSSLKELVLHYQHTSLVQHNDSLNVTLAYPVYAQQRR
Protocol: (§1) For measurement of PI3K activity, 10 μl of sonicated PIP2 (1 μg/μl, Calbiochem), 10 μl of 100 mM MgCl2 and 1 μl of [-^32P]ATP (500 μCi/ml) were added to the kinase buffer (10 mM Tris-HCl (pH 7.4), 150 mM NaCl, 1 mM Na3VO4, 10 mM ZnCl2) and incubated at 37° C. for 30 min. After incubation, 20 μl of 6 N HCl was added to stop the reaction and PIP2 was extracted by treatment with 200 μl of methanol:chloroform (1:1) solution. The amount of radioactively labeled PIP2 in the extract was measured using a scintillator counter.
For peptide treatment, cells were trypsinized to detach them from a culture dish and their aliquot (2×10^5 cells) was incubated with 4 μM peptides in 100 mm dishes. The control was incubated with Mock (DMSO).

HCT116 cells = test: Colony formation assay in 0.3% agar; type: cell-based; conditions: synthesized peptide, one week, colonies over 1 mm counted, FIG. 3C
Protocol: HCT116 cells (1×10^3) were trypsinized and seeded in triplicate in a six-well plate. The serum-free medium containing the synthesized peptide in <Example 3> and 0.3% agar was incubated with the cells. One week after treatment, the generated colony was visualized with 0.5 mg/ml NBT (Nitro blue tetrazolium chloride) and the colonies over 1 mm in diameter were counted.

Akt = Akt phosphorylation by Western blot in Hep3B cells treated with peptide and IGF-1; type: cell-based; conditions: 4 μM peptide 2 days, serum-free 24 hr, IGF-1 30 min, FIG. 2D
Protocol: To test whether the Akt activity induced by IGF-1 treatment is inhibited by the synthesized peptides, Hep3B cells were incubated with IGF-1 and ZF-5-wt-24 […] and the expressions of Akt and pAkt were analyzed.
Hep3B cells were incubated with 4 μM ZF-5-wt-24 for 2 days and then further incubated in a serum-free media for 24 hr. Afterwards, the cells were incubated with IGF-1 for 30 min and subject to the Western blot analysis. Mock (DMSO) was used as a control.

PI3K [2] = target: T1, PI3K; test: IGF-1-induced PI3K activation in Hep3B cells incubated with peptides; type: cell-based; design: The cell lysates were immunoprecipitated with p85α (sc-1637, Santa Cruz) and Protein G-Sepharose beads; endogenous in cells; host or cells: Hep3B; conditions: 4 μM peptides, 48 hr, FIG. 2C
Protocol: as §1
In addition, Hep3B liver cancer cells were incubated with 4 μM peptides for 48 hr and the PI3K activity was analyzed.

PI3K [3] = target: T1, PI3K; test: In vitro competition analysis (PI3K immunoprecipitated from 293T cell lysates with p85α antibody plus peptides); type: biochemical; design: The cell lysates were immunoprecipitated with p85α (sc-1637, Santa Cruz) and Protein G-Sepharose beads; endogenous in cells; conditions: peptides 1 μM, 5 μM and 10 μM, dose-dependent, compared with ZF-3-wt-21, FIG. 2B
Protocol: The in vitro competition analysis was performed by PI3K immunoprecipitation in 293T cells. The activated PI3K was extracted from the 293T cell lysates by immunoprecipitating with p85α antibody simultaneously with addition of the synthesized peptides (1 μM, 5 μM and 10 μM). The PI3K activation was induced as described above.

MDA MB 231 cells [4] = test: Cell proliferation MTT assay; type: cell-based
Protocol: Because the PI3K activation is critical in cell growth, the cell proliferation was analyzed to investigate the inhibitory effect of the FOG2 zinc finger domain using the MTT assay.
MDA MB 231 cells were seeded in a 96-well plate, and transfected with 100 ng DNA of pCKflag, FOG2-wt, FOG2-ZF-5-m or FOG2-ZF-6-m using Lipofectamine 2000. On 3 days post-transfection, the MTT assay was performed.
MDA MB 231 cells (2×10^3 cells) were seeded in a 96-well plate and treated with 4 μM each peptide for 3 days. After the treatment, 50 μl of MTT solution (2 mg/ml) was added to each well, incubated at 37° C. for 1 hr. Then, 150 μl of DMSO was added to each well and the absorbance value of each well was measured at 590 nm using a microplate reader.

MDA MB 231 cells [5] = test: Cell migration, modified Boyden chamber method; type: cell-based; conditions: 4 μM peptide, 2 days of treatment, 18 hr migration, FIG. 3B
Protocol: MDA MB 231 cells were transfected with pCK-flag (control), FOG2-wt (wild type) and FOG2 mutants having modified zinc finger domain (FOG2-ZF-5-m and FOG2-ZF-6-m). The cell migration was then analyzed using the modified Boyden chamber method (Albini A et al., Cancer Res 1987 47:3239-45). Following the transfection for 24 hr, MDA MB 231 cells (1×10^5) were suspended in a serum-free medium and seeded in triplicate in the upper part of BD chamber ([…] pore size). The lower part was filled with the serum-free medium. Following the incubation at 37° C. for 18 hr, non-migrating cells positioned at the upper surface of filters were cleaned with a cotton swab. The migrating cells passing through the lower surface of filters were fixed with 70% ethanol and treated with the Giemsa staining solution for 50 min. Then, the cells were rinsed with water and observed under a microscope. The cell migration rate was determined by counting the number of cells present in randomly-selected six sections and the migration range was expressed as the average number of cells per a microscopic field.
MDA MB 231 cells were incubated with 4 μM Mock (control, DMSO), 4 μM ZF-5-wt-24, 4 μM ZF-5-m-24, 4 μM ZF-5-wt-20 or 4 μM ZF-3-wt-21. After treatment, the cell migration was analyzed using the modified Boyden chamber method (Albini A et al., Cancer Res 1987 47:3239-45). After 2 days of treatment, MDA MB 231 cells (1×10^5) were suspended in the serum free medium and seeded in triplicate in the upper part of BD chamber ([…] pore size). The lower part was filled with the serum free medium. Following the incubation at 37° C. for 18 hr, non-migrating cells positioned at the upper surface of filters were cleaned with the cotton swab. The migrating cells passing through the lower side surface of filters were fixed with 70% ethanol and stained using the Giemsa stain method. The cell migration rate was determined by counting the number of cells present in randomly-selected six sections and the migration range was expressed as the average number of cells per a microscopic field.

MCF 7 = test: Apoptosis by FACS analysis in MCF7 cells; type: cell-based; conditions: synthesized peptides, FIG. 7D
Excerpt: FIG. 7D is a graph showing the apoptotic effect by synthesized zinc finger domain peptides of FOG2 in MCF7 cells according to FACS analysis;

MDA MB 231 cells [6] = test: Apoptosis by FACS analysis (propidium iodide) in MDA MB 231 cells; type: cell-based; conditions: synthesized peptides, FIG. 7C
Protocol: PI3K inactivation has been reported to cause cancer cell apoptosis, and FOG2 is known to inhibit the PI3K activity. To test whether PI3K inactivation by overexpressing FOG2 induces apoptosis, MDA MB 231 cells overexpressed FOG2 were analyzed with FACS.
MDA MB 231 cells were incubated with Full-FOG2[1-1151], FOG2[1-412], FOG2[413-789] or FOG2[802-1151]. The cells (5×10^4) were seeded in a 12-well plate and transfected with 1 μg of Full-FOG2[1-1151], FOG2[1-412], FOG2[413-789] or FOG2[802-1151] using Lipofectamine 2000. The cells were incubated at 37° C. for 2 days and subject to FACS analysis.
The cells were incubated with FOG2 fragments and fixed with 70% ethanol for 16 hr. The fixed cells were stained using RNase (5 mg/ml) and propidium iodide ([…]). The amount of DNA in stained cells was analyzed with Cell Quest program of FACS caliber (Becton Dickinson).

PI3K activity (PI3K [1]): decrease PI3K activity
IGF-1-induced PI3K activation (PI3K [2]): inhibited
reduction of PI3K activity (PI3K [3]): about 40%
Substance: ZF-5-wt-24: The peptide comprising a portion of the fifth zinc finger domain of FOG2 (24 amino acids); residues 547-570 (GATCFECNITFNNLDNYLVHKKHY)
number of colonies / colony formation (HCT116 cells): reduces the colony formation; also recorded: reduced
Akt phosphorylation induced by IGF-1 stimulation (Akt): reduced
reduction of cell proliferation (MDA MB 231 cells [4]; 4 μM peptide for 3 days): about 40%
inhibitory effect on cell proliferation (MDA MB 231 cells [4]; synthesized peptide, increasing concentration, FIG. 6B): reduces the cancer cell proliferation; also recorded: became more prominent as ZF-5-wt-24 concentration increased
reduction of cell migration (MDA MB 231 cells [5]): reduce the cell migration
apoptosis (MCF 7): promoted apoptosis
apoptosis (MDA MB 231 cells [6]): promoted apoptosis
